Source: ChEMBL document CHEMBL1201862, “PubChem BioAssay data set” (2004)
Calls of active or inactive are those of the source. Rule as the data show it: actives have a measured EC50 and inactives only a lower limit.

Biological target: T1, Heat shock factor protein 1 (Mus musculus, UniProt P38532)
T1 sequence (P38532 whole entry): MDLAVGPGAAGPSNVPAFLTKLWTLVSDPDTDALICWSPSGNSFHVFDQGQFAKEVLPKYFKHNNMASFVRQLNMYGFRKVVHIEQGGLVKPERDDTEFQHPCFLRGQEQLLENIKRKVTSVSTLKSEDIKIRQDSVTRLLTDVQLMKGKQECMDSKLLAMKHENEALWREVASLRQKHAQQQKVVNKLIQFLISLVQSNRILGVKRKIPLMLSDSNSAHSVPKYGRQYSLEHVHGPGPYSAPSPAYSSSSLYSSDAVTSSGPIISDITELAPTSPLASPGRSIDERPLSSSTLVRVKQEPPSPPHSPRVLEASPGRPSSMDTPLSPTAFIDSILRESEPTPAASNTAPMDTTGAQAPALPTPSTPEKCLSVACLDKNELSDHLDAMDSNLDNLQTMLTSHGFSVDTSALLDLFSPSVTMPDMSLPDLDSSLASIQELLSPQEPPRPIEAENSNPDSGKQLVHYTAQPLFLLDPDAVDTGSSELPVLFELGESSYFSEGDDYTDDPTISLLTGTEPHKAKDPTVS
Assay: HSF1 potentiators in luciferase reporter cells, confirmation, cell-based, NIH3T3, luminescence, dose retest (AID 435004);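 also: stress induced by proteasome inhibitor MG132 added 30 min after compound; luciferase reporter driven by HSF1 response element in NIH3T3 cells; actives raise luminescence as potentiators of the MG132 stress response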
Format: functional
Settings: not given
In the case of `Cc1nc(C(=N)NOC(=O)Cc2ccccc2)no1`, the EC50 is reported as > 260 µM (inactive). For `C=CCn1c(C)cc(C(=O)CSc2nc(N)cc(N)n2)c1C`, the EC50 was > 260 µM (inactive). In the case of `CC(=O)Nc1ccc(N2C(=O)C3C4CC(=O)C(c5ccccc54)C3C2=O)cc1` (stereo not drawn), the EC50 is reported as > 260 µM (inactive). In the case of `C=CCSC1=C(C#N)C(c2cccc(OC)c2)CC(=O)N1` (stereo not drawn), the EC50 is reported as > 260 µM (inactive). With `COc1ccc(CN(C)Cc2c(O)ccc3ccccc23)cc1` the EC50 was 38.8 µM (active). For `CC/C(=N/Cc1ccc(Cl)c(Cl)c1)c1nc(-c2ccco2)oc1O`, the EC50 was 20 µM (active). In the case of `COc1ccc(NC(=O)C(NCC(C)C)c2ccccc2)cc1Cl` (stereo not drawn), the EC50 is reported as > 260 µM (inactive). For `CN=C(S)NCCC(c1ccccc1)c1ccccc1`, the EC50 was > 260 µM (inactive). In the case of `CCOc1ccc(-n2c(=S)sc3c(O)nc(SCC(=O)NC(C)CC)nc32)cc1` (stereo not drawn), the EC50 is reported as > 260 µM (inactive). With `CC(=O)c1ccc(N2CCN(C(=O)c3[nH]nc4ccccc34)CC2)cc1` the EC50 was > 260 µM (inactive). For `CCOC(=O)c1ccc(NC(=O)CCS(=O)(=O)c2ccc(Br)s2)cc1`, the EC50 was > 260 µM (inactive). In the case of `CCCSc1nnc2n(-c3ccccc3OC)c(=O)c3c4c(sc3n12)CCC4`, the EC50 is reported as > 260 µM (inactive). For `O=S(=O)(c1ccc(Cl)cc1)N1CCC2(CC1)OCCN2S(=O)(=O)c1cccs1`, the EC50 was 227 µM (active). For `S=C(c1cn(Cc2ccc(Br)cc2)c2ccccc12)N1CCOCC1`, the EC50 was > 260 µM (inactive). For `Cc1cc(C)n(-c2nc3ccccc3nc2N2CCN(C(=O)c3ccc(F)cc3)CC2)n1`, the EC50 was > 260 µM (inactive). For `Nc1c(-c2ccsc2)cnc2ncnn12`, the EC50 was > 260 µM (inactive). In the case of `O=C(COc1ccccc1)NC(=S)Nc1cccc2cc(O)ccc12`, the EC50 is reported as > 260 µM (inactive). With `O=c1[nH]c2ccccc2c2cn(-c3ccccc3)nc12` the EC50 was 126 µM (active). For `COC(=O)c1ccc(OC(=O)CCN2C(=O)C3CCCCC3C2=O)cc1` (stereo not drawn), the EC50 was > 260 µM (inactive). For `COc1ccc(-c2nnc3ccc(SCC(=O)NCC4CCCO4)nn23)cc1` (stereo not drawn), the EC50 was > 260 µM (inactive). In the case of `COC(=O)C1=CN(c2ccc(F)cc2)C=C(C(=O)OC)C1c1cccc(Br)c1`, the EC50 is reported as > 260 µM (inactive). With `Cc1ccc(C(=O)NNC(=O)c2ccccc2-n2cccc2)cc1` the EC50 was > 260 µM (inactive). With `CCC1Oc2ccc(C)cc2N(Cc2cccc(C)c2)C1=O` (stereo not drawn) the EC50 was > 260 µM (inactive). With `Nn1c(SCC(=O)N2CCOCC2)nnc1C1CC1` the EC50 was > 260 µM (inactive). In the case of `COc1ccc(OC)c(S(=O)(=O)Nc2ccccc2O)c1`, the EC50 is reported as > 260 µM (inactive).

Tested on: H4
Assay: Luminescence Cell-Based Dose Response HTS to Identify Activators of 5'UTR Stem-Loop Driven Prion Protein mRNA Translation in H4 Neuroglioblastoma Cells. [Related pubchem assays: 1829 (Project Summary), 1814 (Primary HTS)]
Format: functional
Settings: Homo sapiens
In the case of `N=C(NOC(=O)/C=C/c1ccccc1Cl)c1cccnc1`, the EC50 is reported as 22.8 µM (active).

Tested on: not listed separately
Assay: NIH-3T3 fibroblast cytotoxicity, dose response, cytotoxicity control, cell-based, fluorescence, Alamar Blue, secondary assay (AID 2327);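 also: NIH-3T3 mouse fibroblasts cultured with fluconazole at 8 µg/mL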
Format: functional
Settings: not given
In the case of `Cc1ccc(-c2nc(-c3cccnc3)no2)c(C)c1`, the EC50 is reported as > 150 µM (inactive). In the case of `Cc1ccc2nsnc2c1NC(=O)COc1ccccc1F`, the EC50 is reported as > 150 µM (inconclusive).
